Like-named read-outs stand apart in the source and are kept apart here.

By DC50 is commonly meant the concentration giving 50% degradation. What is called Dmax is the largest share of the target that was removed.

In this assay the target is T1, androgen receptor (AR) (Homo sapiens, UniProt P10275).
T1 sequence (P10275 1-920): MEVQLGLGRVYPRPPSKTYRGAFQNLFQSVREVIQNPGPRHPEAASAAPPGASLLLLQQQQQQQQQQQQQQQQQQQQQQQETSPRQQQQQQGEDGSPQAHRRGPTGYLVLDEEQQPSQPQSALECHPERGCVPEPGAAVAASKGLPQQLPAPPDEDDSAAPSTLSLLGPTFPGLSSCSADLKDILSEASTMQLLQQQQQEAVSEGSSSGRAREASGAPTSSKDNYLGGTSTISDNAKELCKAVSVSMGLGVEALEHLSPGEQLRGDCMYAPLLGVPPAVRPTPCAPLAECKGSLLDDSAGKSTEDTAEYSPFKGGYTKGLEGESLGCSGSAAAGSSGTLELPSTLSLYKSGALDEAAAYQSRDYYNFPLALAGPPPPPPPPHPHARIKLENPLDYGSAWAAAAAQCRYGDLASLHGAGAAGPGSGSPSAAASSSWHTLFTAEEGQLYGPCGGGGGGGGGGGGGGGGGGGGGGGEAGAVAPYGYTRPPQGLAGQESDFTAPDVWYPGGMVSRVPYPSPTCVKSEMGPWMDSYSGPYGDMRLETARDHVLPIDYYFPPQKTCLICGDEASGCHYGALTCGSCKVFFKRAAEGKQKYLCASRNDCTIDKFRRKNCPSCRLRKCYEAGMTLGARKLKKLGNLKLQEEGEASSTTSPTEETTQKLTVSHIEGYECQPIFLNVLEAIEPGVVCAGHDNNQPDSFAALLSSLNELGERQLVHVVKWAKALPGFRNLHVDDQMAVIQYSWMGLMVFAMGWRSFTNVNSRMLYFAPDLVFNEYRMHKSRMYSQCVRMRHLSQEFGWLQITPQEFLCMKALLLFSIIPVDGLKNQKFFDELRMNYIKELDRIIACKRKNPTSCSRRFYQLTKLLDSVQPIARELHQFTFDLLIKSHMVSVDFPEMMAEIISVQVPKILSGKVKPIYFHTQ
Briefly: Degradation of androgen receptor (AR) protein in VCaP cells by ELISA. The format is cell-based. To be noted: for inhibition at 0.1 µM: percentage of degraded AR at 100 nM, read-out: % degradation; for Dmax: VCaP. (In general: An ELISA detects its analyte on a solid surface through an enzyme-linked reagent.)

[1] abbreviates: AR degradation, VCaP cells, 16 h, ELISA, Table 3-1, read-out: DC50.
Setting [2] is: AR degradation, VCaP cells, 16 h, ELISA, Table 3-1, read-out: Dmax (%).
[3] abbreviates: AR degradation, VCaP cells, 16 h, ELISA, Table 3-2, read-out: DC50.
[4] abbreviates: AR degradation, VCaP cells, 16 h, ELISA, Table 3-2, read-out: Dmax (%).

Take `N#Cc1ccc(OC2CCC(NC(=O)c3cn(C4CCC(CN5CCC6(CC5)CN(c5ccc7c(c5)C(=O)N(C5CCC(=O)NC5=O)C7=O)C6)CC4)cn3)CC2)cc1Cl` [Compound 113, N-((1r,4R)-4-(3-chloro-4-cyanophenoxy)cyclohexyl)-1-((1r,4R)-4-((2-(2-(2,6-dioxopiperidin-3-yl)-1,3-dioxoisoindolin-5-yl)-2,7-diazaspiro[3.5]nonan-7-yl)methyl)cyclohexyl)-1H-imidazole-4-formamide]: the “Dmax (%)” value was “++++ (key: A: >80%; B: 79%-50%; C: 49%-25%; D: <25%)”. Also, where the note is “read-out: DC50”, the DC50 is less than 10 nM.

Take `Cc1ncsc1-c1ccc([C@H](C)NC(=O)[C@@H]2C[C@@H](O)CN2C(=O)[C@@H](NC(=O)COCCCCC#Cc2ccc3c(n2)CN([C@H]2C(C)(C)[C@H](Oc4ccc(C#N)c(Cl)c4)C2(C)C)C3=O)C(C)(C)C)cc1` [Compound 36, (2S,4R)-1-((S)-2-(2-((6-(6-((1r,3r)-3-(3-chloro-4-cyanophenoxy)-2,2,4,4-tetramethylcyclobutyl)-5-oxo-6,7-dihydro-5H-pyrrolo[3,4-b]pyridin-2-yl)hex-5-yn-1-yl)oxy)acetylamino)-3,3-dimethylbutyryl)-4-hydroxy-N-((S)-1-(4-(4-methylthiazol-5-yl)phenyl)ethyl)pyrrolidine-2-carboxamide]: the inhibition at 0.1 µM (VCaP cells, 16 h, ELISA) fell in the range of 25 to 49%.

Turning to `N#Cc1ccc(O[C@H]2CC[C@H](NC(=O)c3cnc(N4CCC(CN5CCC6(C5)CN(c5ccc7c(c5)C(=O)N(C5CCC(=O)NC5=O)C7=O)C6)CC4)cn3)CC2)cc1Cl` (some centres unmarked) [Compound 187, N-((1r,4r)-4-(3-chloro-4-cyanophenoxy)cyclohexyl)-5-(4-((2-(2-(2,6-dioxopiperidin-3-yl)-1,3-dioxoisoindolin-5-yl)-2,6-diazaspiro[3.4]octan-6-yl)methyl)piperidin-1-yl)pyrazine-2-carboxamide], the 50% degradation concentration (DC50) under setting [1] was less than 10 nM. Besides, under setting [2], the Dmax is greater than 80%.

With `CC1(C)[C@H](Oc2ccc(C#N)c(Cl)c2)C(C)(C)[C@H]1N1Cc2nc(C#C[C@H]3C[C@H](N4CCN(c5cc6c(cc5F)C(=O)N(C5CCC(=O)NC5=O)C6=O)CC4)C3)cnc2C1=O` (some centres unmarked) [Compound 391], under setting [3], the DC50 was in the range of 100 to 300 nM. The Dmax under setting [4] was greater than 80%.

Regarding `C[C@@H]1CN(c2ccc(C(=O)N[C@H]3CC[C@H](Oc4ccc(C#N)c(Cl)c4)CC3)nn2)CCN1C[C@H]1[C@@H]2CN(c3cc4c(cc3F)C(=O)N(C3CCC(=O)NC3=O)C4=O)C[C@@H]21` (some centres unmarked) [Compound 265], under setting [1], the DC50 fell in the range of 10 to 100 nM. Further, the Dmax under setting [2] lay in the range of 60 to 80%.

In turn, `CN(C1CCN(c2ccc(C(=O)N[C@H]3CC[C@H](Oc4ccc(C#N)c(Cl)c4)CC3)nn2)CC1)C1CCN(c2cc3c(cc2F)C(=O)N(C2CCC(=O)NC2=O)C3=O)CC1` (some centres unmarked) [Compound 119] came in with a Dmax greater than 80%. Besides, the DC50 under setting [1] was less than 10 nM.

Consider `N#Cc1ccc(O[C@H]2CC[C@H](NC(=O)c3cn([C@H]4CC[C@H](CN5CCC6(CC5)CN(c5cc7c(cc5F)C(=O)N(C5CCC(=O)NC5=O)C7=O)C6)CC4)nn3)CC2)cc1Cl` (some centres unmarked) [Compound 115], for which the DC50 under setting [1] is less than 10 nM. Also, the Dmax under setting [2] is greater than 80%.

For the compound `CC1(C)[C@H](Oc2ccc(C#N)c(Cl)c2)C(C)(C)[C@H]1N1Cc2nc(C#CC3CCC(N4CCC5(CN(c6cc7c(cc6F)C(=O)N(C6CCC(=O)NC6=O)C7=O)C5)C4)CC3)ccc2C1=O` (some centres unmarked) [Compound 374], the DC50 under setting [1] is less than 10 nM. For the same compound, the Dmax under setting [2] was greater than 80%.

Turning to `N#Cc1ccc(O[C@H]2CC[C@H](NC(=O)c3ccc(N4CCN(C5CC6(CCN(c7cc8c(cc7F)C(=O)N(C7CCC(=O)NC7=O)C8=O)CC6)C5)CC4)nn3)CC2)cc1Cl` (some centres unmarked) [Compound 270, N-((1r,4r)-4-(3-chloro-4-cyanophenoxy)cyclohexyl)-6-(4-(7-(2-(2,6-dioxopiperidin-3-yl)-6-fluoro-13-dioxoisoindolin-5-yl) -7-azaspiro[3.5]nonan-2-yl)piperazin-1-yl)pyridazine-3-formamide], the DC50 under setting [1] was less than 10 nM. Besides, the Dmax under setting [2] is greater than 80%.

Turning to `N#Cc1ccc(O[C@H]2CC[C@H](NC(=O)c3ccc(N4CCCN(C[C@@H]5[C@H]6CN(c7cc8c(cc7F)C(=O)N(C7CCC(=O)NC7=O)C8=O)C[C@@H]56)CC4)nn3)CC2)cc1Cl` (some centres unmarked) [Compound 93], the DC50 under setting [1] was in the range of 10 to 100 nM. Also, the Dmax under setting [2] was 60 to 80%.

As for `CC1(C)[C@H](Oc2ccc(C#N)c(Cl)c2)C(C)(C)[C@H]1N1Cc2nc(C#CC3CCC(N4CC5(CCN(c6cc7c(cc6F)C(=O)N(C6CCC(=O)NC6=O)C7=O)C5)C4)CC3)ccc2C1=O` (some centres unmarked) [Compound 370], for the setting “AR degradation, VCaP cells, 16 h, ELISA, Table 3-1”, the “Dmax (%)” value is recorded as “++ (60%-40%)”. The DC50 under setting [1] lay in the range of 100 to 300 nM.

As for `CC1(C)[C@H](Oc2ccc(C#N)c(Cl)c2)C(C)(C)[C@H]1N1Cc2nc(C#C[C@H]3C[C@H](N4CCN(c5ccc6c(=O)n(C7CCC(=O)NC7=O)cnc6c5)CC4)C3)ccc2C1=O` (some centres unmarked) [Compound 396], the DC50 under setting [3] is 10 to 100 nM. Besides, the Dmax under setting [4] is greater than 80%.

`CC1(C)[C@H](Oc2ccc(C#N)c(Cl)c2)C(C)(C)[C@H]1N1Cc2nc(C#CC3CCC(N4CC5CC4CN5c4cc5c(cc4F)C(=O)N(C4CCC(=O)NC4=O)C5=O)CC3)ccc2C1=O` (some centres unmarked) [Compound 343]: the DC50 under setting [1] is greater than 300 nM. Further, the Dmax under setting [2] lay within 40 to 60%.

In the case of `CC1(C)[C@H](Oc2ccc(C#N)c(Cl)c2)C(C)(C)[C@H]1N1Cc2nc(C#C[C@H]3CC[C@H](N4CCN(c5ccc6c(c5)C(=O)N(C5CCC(=O)NC5=O)C6=O)CC4)CC3)cnc2C1=O` (some centres unmarked) [Compound 381], under setting [1], the DC50 fell in the range of 10 to 100 nM. Further, under setting [2], the Dmax is greater than 80%.

Take `CC1(C)[C@H](Oc2ccc(C#N)c(Cl)c2)C(C)(C)[C@H]1N1Cc2nc(N3CCC(CN4CCN(c5cc6c(cc5F)C(=O)N(C5CCC(=O)NC5=O)C6)CC4)CC3)ccc2C1=O` (some centres unmarked) [Compound 206]: under “VCaP cells, 16 h, ELISA”, the inhibition at 0.1 µM lay in the range of 25 to 49%.

For the compound `N#Cc1ccc(O[C@H]2CC[C@H](NC(=O)c3ccc(N4CCN(C[C@@H]5[C@H]6CN(c7cc8c(cc7F)C(=O)N(C7CCC(=O)NC7=O)C8=O)C[C@@H]56)CC4)cn3)CC2)cc1Cl` (some centres unmarked) [Compound 286], the DC50 under setting [1] was 10 to 100 nM. Moreover, the Dmax under setting [2] lay within 60 to 80%.

For `N#Cc1ccc(O[C@H]2CC[C@H](NC(=O)c3ncc(N4CCC(CN5CCC6(CC5)CN(c5cc7c(cc5F)C(=O)N(C5CCC(=O)NC5=O)C7=O)C6)CC4)cn3)CC2)cc1Cl` (some centres unmarked) [Compound 148], the DC50 was greater than 300 nM and the Dmax lay in the range of 40 to 60%.

`N#Cc1ccc(O[C@H]2CC[C@H](NC(=O)c3ccc(N4CCC(CN5CC6(C5)CN(c5cc7c(cc5F)C(=O)N(C5CCC(=O)NC5=O)C7=O)C6)CC4)nn3)CC2)cc1Cl` (some centres unmarked) [Compound 122, N-((1r,4r)-4-(3-chloro-4-cyanophenoxy)cyclohexyl)-6-(4-((6-(2-(2,6-dioxopiperidin-3-yl)-6-fluoro-1,3-dioxoisoindolin-5-yl)-2,6-diazaspiro[3.3]heptan-2-yl)methyl)piperidin-1-yl)pyridazine-3-amide] returned a DC50 of less than 10 nM and a maximal degradation (Dmax) greater than 80%.

Consider `N#Cc1ccc(O[C@H]2CC[C@H](NC(=O)c3ccc(N4CCC5(CC4)CC(N4CCN(c6cc7c(cc6F)C(=O)N(C6CCC(=O)NC6=O)C7=O)CC4)C5)nn3)CC2)cc1Cl` (some centres unmarked) [Compound 269], for which the DC50 under setting [1] was less than 10 nM. Further, under setting [2], the Dmax was greater than 80%.

Take `N#Cc1ccc(OC2CCC(NC(=O)c3cnc(N4CCN(CC5[C@H]6CN(c7cc8c(cc7F)C(=O)N(C7CCC(=O)NC7=O)C8=O)C[C@@H]56)CC4)nc3)CC2)cc1Cl` (some centres unmarked) [Compound 128]: the “Dmax (%)” value is on record as “+++ (key: ++++: >80%; +++: 80%-60%; ++: 60%-40%; +: <40%)”. Under “read-out: DC50”, the DC50 was in the range of 10 to 100 nM.

For the origin of these results see US20230091225A1, “Bifunctional chimeric heterocyclic compounds for targeted degradation of androgen receptors and use thereof” (HINOVA PHARMACEUTICALS INC., priority 2019, published 2023).
